The values that follow are results of earlier work, collected in US10507185B2, “Composite structural material and pharmaceutical composition thereof” (INNOVACO PHARMACEUTICALS, INC, priority 2013, dated 2019).

Consider `CC(C)n1c(/C=C/C(O)CC(O)CC(=O)O)c(-c2ccc(F)cc2)c2ccccc21` (stereo not shown) [Fluvastatin, fluvastatin], for which the pKa value is 4.6.
